Experiment [1] relates to chronic cerebral hypoperfusion model rats (bilateral carotid artery ligation; simulated early AD). Nature of the experiment: Morris water maze space exploration experiment in chronic cerebral hypoperfusion model rats. It counts as in vivo, Sprague Dawley (SD) rats. Particulars: for searching time in the quadrant of the original platform compared with the model group (in words): Morris water maze space exploration, versus model group; for Time spent in the original platform quadrant: platform removed, after the orientation navigation experiment, CGA 60 mg/kg/d i.p., 3-coumaroylquinic acid alone 0.03 mg/kg/d i.p., sodium oligomannate 100 mg/kg/d gavage, mean±SD, n=10. The text has this:
(§1) In this experiment, the occurrence of mild AD in humans after chronic cerebral hypoperfusion was simulated by performing bilateral carotid artery ligation in rats, and the intervention of the pharmaceutical composition according to the present invention on the learning and memory ability of these rats was observed, in order to investigate the therapeutic effect of the pharmaceutical composition according to the present invention on early AD.
(§2) 2.1. Experimental Animals: 6-8 Week Old, SPF Grade, Male Sprague Dawley (SD) Healthy Rats, Weighing 280-300 g.
(§3) A chronic cerebral hypoperfusion model was established by bilateral carotid artery ligation. Rats were acclimated to the environment for 1 week, and then fasted for 12 h and water-deprivated for 4 h before surgery. The rats were anesthetized with 0.4% pentobarbital sodium (0.5 mL/100 g i.p.), and fixed in a supine position on the operating table. Hair was removed from the skin in front of the neck. The naked skin was disinfected with iodine, and then the rats were incised in the middle of the neck. The subcutaneous superficial fascia was bluntly separated, and then the sternocleidomastoideole and sternohyoid muscle were carefully separated along both sides of the trachea, with arterial sheath visible; the bilateral common carotid arteries were separated and exposed with a glass needle, to bury the thread, and then double ligated with silk thread. The blood vessels between the two ligation points were cut off. The incision was sutured layer by layer and disinfected, followed by waiting for awakening of rats. During the operation, incandescent lamp irradiation was used to maintain the anal temperature of rats at 36.5° C.-37.5° C. After surgery, each rat was placed in a single cage to prevent suffocation.
(§4) 10 healthy SD rats with suitable body weight (within the required range) were randomly selected as the normal control group. 80 successfully modeled rats were randomly divided into 8 groups, with 10 rats in each group. They were named as follows: model control group (n=10), CGA treatment group (n=10), 3-coumaroylquinic acid treatment group (n=10), CGA+3-coumaroylquinic acid (100:0.01) treatment group (n=10), CGA+3-coumaroylquinic acid (100:0.05) treatment group (n=10), CGA+3-coumaroylquinic acid (100:0.5) treatment group (n=10), CGA+3-coumaroylquinic acid (100:1) treatment group (n=10), sodium oligomannate treatment group (n=10), and thus, there are […], along with the normal control group (n=10), for a total of 90 rats.
In this experiment, except for sodium oligomannate treatment group, which was administered by gavage, all other treatment groups were administered by intraperitoneal injection to each group of rats. […]

Experiment [2] has the same test system. Nature of the experiment: Morris water maze orientation navigation experiment in chronic cerebral hypoperfusion model rats. In kind it is in vivo, Sprague Dawley (SD) rats. Particulars: for average escape latency in Morris water maze experiment / searching distance in Morris water maze experiment: after 20 consecutive days of administration, CGA 60 mg/kg/d i.p., 3-coumaroylquinic acid alone 0.03 mg/kg/d i.p., sodium oligomannate 100 mg/kg/d gavage, mean±SD, n=10; for escape latency and searching distance of rats compared with the model group (in words): Morris water maze, over the 5-day experiment, versus model group.
From the text: as §1, §2, §3, §4
In this experiment, except for sodium oligomannate treatment group, which was administered by gavage, all other treatment groups were administered by intraperitoneal injection to each group of rats. The blank group and model group were given the solvent physiological saline by intraperitoneal injection. Rats in each treatment group were administrated one week after modeling surgery. Then, after 20 consecutive days of administration, the experiment was carried out. The administration continued during the experiment. At the same time, both the blank group and the model group were given an equal amount of physiological saline. […]

Consider `O=C(/C=C/c1ccc(O)cc1)O[C@@H]1C[C@](O)(C(=O)O)C[C@@H](O)[C@H]1O` [3-coumaroylquinic acid], for which the “searching time in the quadrant of the original platform compared with the model group (in words)” value in experiment [1] is “almost no extension”. For the same compound, in experiment [1], the “Time spent in the original platform quadrant” value was 30.2 ± 7.8 s. Moreover, the “average escape latency in Morris water maze experiment” value in experiment [2] (Day 1) is on record as 98.1 ± 16.8 s; in experiment [2] (Day 2), 94.2 ± 15.3 s; in experiment [2] (Day 3), 81.5 ± 13.7 s; in experiment [2] (Day 4), 75.4 ± 16.3 s; in experiment [2] (Day 5), 51.8 ± 14.2 s. In addition, the “searching distance in Morris water maze experiment” value in experiment [2] (Day 1) was 1127.3 ± 117.2 cm; in experiment [2] (Day 2) it was 954.5 ± 119.3 cm; in experiment [2] (Day 3), 892.6 ± 106.2 cm; in experiment [2] (Day 4), 577.1 ± 72.5 cm; in experiment [2] (Day 5), 407.1 ± 44.3 cm. Moreover, in experiment [2], the “escape latency and searching distance of rats compared with the model group (in words)” value was “almost no improvement”.
Regarding `O=C(/C=C/c1ccc(O)c(O)c1)O[C@@H]1C[C@](O)(C(=O)O)C[C@@H](O)[C@H]1O` [CGA, 3-O-caffeoylquinic acid], the “searching time in the quadrant of the original platform compared with the model group (in words)” value in experiment [1] is recorded as “almost no extension”. For the same compound, in experiment [1], the “Time spent in the original platform quadrant” value is on record as 32.6 ± 8.5 s. The “average escape latency in Morris water maze experiment” value in experiment [2] (Day 1) is recorded as 95.4 ± 15.1 s; in experiment [2] (Day 2), 89.2 ± 17.5 s; in experiment [2] (Day 3), 75.6 ± 12.6 s; in experiment [2] (Day 4), 70.7 ± 14.5 s; in experiment [2] (Day 5), 46.3 ± 10.6 s. The “searching distance in Morris water maze experiment” value in experiment [2] (Day 1) was 1125.6 ± 108.4 cm; in experiment [2] (Day 2), 944.3 ± 102.5 cm; in experiment [2] (Day 3) it was 844.8 ± 99.1 cm; in experiment [2] (Day 4), 560.9 ± 64.2 cm; in experiment [2] (Day 5), 395.2 ± 42.7 cm. The “escape latency and searching distance of rats compared with the model group (in words)” value in experiment [2] is listed as “almost no improvement”.
